The text below walks through data of the OPERA property sets (Mansouri et al. 2018).

In the case of `[O-][n+]1ccc(Cl)cc1`, the logP was -0.44.
The result for `C#CCOc1cc(NC=NOCOC)cc(Cl)c1OCC#C` reads 2.2; that for `CCC(C)NC(=O)COC(=O)Cc1ccc2cc(OC)ccc2c1` (stereo unspecified), 3.31; that for `C=CCNC(=O)N(CCC)CCCC(NC(C)=O)C(=O)NCc1ccccc1` (stereo unspecified), 1.21.
Molecule `CCCCNC(=O)COC(=O)Cc1ccc2cc(OC)ccc2c1` registered a logP of 3.57.
The molecule `CNC(=O)N(CCCCC(NC(C)=O)C(=O)NCc1ccccc1)Cc1ccccc1` (stereo unspecified) yielded a logP of 1.99.
The molecule `COc1ccc2cc(CC(=O)OCC(=O)NC3CCCCC3)ccc2c1` came in with a logP of 3.99.
`[O-][n+]1nc2ccccc2c2ccccc21` registered a logP of 2.24.
The result for `CCCCc1ccc(CO)cc1` reads 3; that for `CCCN(CCCC(NC(C)=O)C(=O)NCc1ccccc1)C(=O)NC` (stereo unspecified), 1.47; that for `COc1ccc2cc(CC(=O)OCC(=O)N(CCO)CCO)ccc2c1`, 1.41.
As for `OC1(Cn2cncn2)CCCC1Cc1ccccc1` (stereo unspecified), the logP came out at 2.26.
The result for `COc1cccc(OC)c1C(=O)Nc1nnc(-c2ccccc2)s1` reads 3.5; that for `COc1ccc2cc(CC(=O)OCC(=O)N3CCOCC3)ccc2c1`, 2.13.
The result for `CCOc1ccc(NC(=O)OCCBr)cc1OCC` reads 2.78; that for `ClC1=C(Cl)C2C(C1Cl)C1(Cl)C(Cl)C(Cl)C2(Cl)C1(Cl)Cl` (stereo unspecified), 6.08.
The result for `N#CN=C1NCCN1Cc1ccc(Cl)nc1` reads 0.77.
In the case of `CC(=O)Oc1ccc(C(=O)O)cc1`, the lipophilicity (logP) worked out at 1.48.
Regarding `CCC(=O)Oc1ccccc1C(=O)O`, the logP amounted to 1.67. The logP values of the last two molecules are within 0.2 log units of each other.
The result for `COC1N(C2CC(N=[N+]=[N-])C(CO)O2)C(=O)NC(=O)C1(C)Br` (stereo unspecified) reads 1.12; that for `COc1cccc(OC)c1C(=O)Nc1nnc(-c2ccc(C)cc2)s1`, 3.85; that for `CCOC(=O)C(C)Oc1ccc(-n2sc3ccccc3c2=O)cc1` (stereo unspecified), 3.89.
For `COc1ccc2cc(CC(=O)O)ccc2c1`, the logP is 2.82.
The result for `CCCOc1ccccc1NC(=O)OC1CCCCC1CN(C)C` (stereo unspecified) reads 4.44.
The result for `CCOC(=O)CCOc1ccc(-n2sc3ccccc3c2=O)cc1` reads 3.59.
In turn, `CCOc1ccc(NC(=O)OC(C)COC)cc1OCC` (stereo unspecified) displayed a logP of 2.56.
The result for `CC(C)c1ccc(OC(=O)N(C)C)cc1` reads 3.04; that for `CC=CCOCN(C(=O)CCl)c1c(CC)cccc1CC`, 3.51; that for `C#CCC(C)OC(=O)Nc1ccc(OCC)c(OCC)c1` (stereo unspecified), 2.86.
`C=CCN1CCCN(CC=C)C1=S` returned a logP of 2.08.
The result for `CC(=O)NC(CCCCNC(=O)N(C)N=O)C(=O)NCc1ccccc1` (stereo unspecified) reads 1.18; that for `NC(=O)Cc1ccc(-n2sc3ccccc3c2=O)cc1`, 1.72.
In the case of `CC(=O)NC(CCCCN(Cc1ccccc1)C(=O)N(C)N=O)C(=O)NCc1ccccc1` (stereo unspecified), the logP is 2.12.
The result for `CCOc1ccc(NC(=O)OCCCl)cc1OCC` reads 2.62; that for `CCC(C(N)=O)c1ccc(-n2sc3ccccc3c2=O)cc1` (stereo unspecified), 2.58; that for `O=S1CC2=NOS3=C2C(=NO3)C1`, -0.3.
As for `CC(C)(C)C(=O)OCn1cc(F)c(=O)[nH]c1=O`, the logP came to 0.66.
The result for `CC1CC2=NOS3=C2C(=NO3)C1` reads 1.5; that for `CCc1cccc(OC(=O)N(C)C)c1`, 2.47; that for `O=C1NC(=O)C(c2ccccc2)(c2ccccc2)N1S(=O)(=O)c1ccc(Cl)cc1`, 4.48.
On to `CCCCCCCCCCn1c(N)c(N)c(=O)[nH]c1=O`, for which the lipophilicity (logP) stood at 3.04.
As to `CC(C(N)=O)c1ccc(-n2sc3ccccc3c2=O)cc1` (stereo unspecified), the logP came out at 2.07.
The result for `C=CCN1CCN(CC=C)C1=S` reads 1.63.
Molecule `Cc1cccc(O)c1C` came in with a logP of 2.48.
In the case of `CCOC(=O)C(CC)c1ccc(-n2sc3ccccc3c2=O)cc1` (stereo unspecified), the logP is 4.11.
The result for `CC(=O)c1ccc(OC(=O)N(C)C)cc1` reads 1.27.
The molecule `CCCN(CCC)C(=O)COC(=O)Cc1ccc2cc(OC)ccc2c1` yielded a logP of 4.04.
In turn, `CCc1ccc(OC(=O)N(C)C)cc1` showed a logP of 2.55.
The result for `CC(=O)Nc1n[n+]([O-])c2cc(C)ccc2[n+]1[O-]` reads -0.4; that for `COCCNC(=O)Cn1ccnc1[N+](=O)[O-]`, -0.77.
For `CC(=O)c1cc[n+]([O-])cc1`, the logP is -0.93.
The result for `CCC1CCC(Cc2ccc(Cl)cc2)C1(O)Cn1cncn1` (stereo unspecified) reads 3.71; that for `CCCCOc1ccccc1NC(=O)OC1CCCCC1CN(C)C` (stereo unspecified), 5.01; that for `CC(=O)NC(CCCNC(=O)NCCCl)C(=O)NCc1ccccc1` (stereo unspecified), 0.34.
The result for `CC(=O)CC(=O)Nc1n[n+]([O-])c2ccccc2[n+]1[O-]` reads -1.4; that for `CCCN(CCCl)c1c([N+](=O)[O-])cc(C(F)(F)F)cc1[N+](=O)[O-]`, 4.63.
The result for `C=CCN(N=O)C(=O)N(CCCCC(NC(C)=O)C(=O)Nc1ccccc1)Cc1ccccc1` (stereo unspecified) reads 2.7; that for `CC(=O)NC(CCCCNC(=O)NCCCl)C(=O)NCc1ccccc1` (stereo unspecified), 0.61.
Molecule `CC(C)(C)c1ccc(CC2CCCC2(O)Cn2cncn2)cc1` (stereo unspecified) showed a logP of 3.97.
The result for `C=CCN(N=O)C(=O)N(CCC)CCCC(NC(C)=O)C(=O)NCc1ccccc1` (stereo unspecified) reads 2.16.
The result for `C#CCON=CNc1cc(Cl)c(OCC#C)c(OCC#C)c1` reads 2.3.
In turn, `CN(C)C(=O)Oc1cccc(Cl)c1` registered a logP of 2.33.
`CCOC(=O)C(C)c1ccc(-n2sc3ccccc3c2=O)cc1` (stereo unspecified) had a log partition coefficient (logP) of 3.91.
Turning to `COc1ccc2cc(CC(=O)OCC(=O)N3CCCC3)ccc2c1`, the logP is 2.71.
In turn, `COc1cccc(OC)c1C(=O)Nc1nnc(-c2ccc(F)cc2)s1` showed a log partition coefficient (logP) of 3.5.
As to `COc1ccc2cc(CC(=O)OCC(N)=O)ccc2c1`, the log partition coefficient (logP) came to 1.88.
The result for `O=c1[nH]c2ccccc2n1C1CCNCC1` reads 1.14; that for `C=CCN(N=O)C(=O)NCCCCC(NC(C)=O)C(=O)NCc1ccccc1` (stereo unspecified), 1.62.
As to `CNC(=O)ON=C(CSC)C(C)(C)C`, the logP stood at 2.75.
For the molecule `CNC(=O)NCCCC(NC(C)=O)C(=O)NCc1ccccc1` (stereo unspecified), the logP was -0.33.
For `CCCCCCCOc1ccccc1NC(=O)OC1CCCCC1CN(C)C` (stereo unspecified), the logP amounted to 6.3.
In turn, `COc1ccccc1NC(=O)OC1CCCCC1CN(C)C` (stereo unspecified) had a logP of 3.55.
`CCOC(=O)COc1ccc(-n2sc3ccccc3c2=O)cc1` showed a logP of 2.96.
Take `Nc1n[n+]([O-])c2cc(OCC(O)CO)ccc2[n+]1[O-]` (stereo unspecified): the logP was -1.1.
`COc1n[n+]([O-])c2ccccc2[n+]1[O-]` had a logP of -0.3.
On to `C=CC(CC)OC(=O)Nc1ccc(OCC)c(OCC)c1` (stereo unspecified), for which the logP was 3.42.
Regarding `CN(C)C(=O)Oc1cccc(N(C)C)c1`, the logP came to 1.93.
`COc1ccc2cc(CC(=O)OCC(=O)N(C)C)ccc2c1`: the logP was 2.23.
`CC(=O)Nc1n[n+]([O-])c2ccccc2[n+]1[O-]`: the logP was -0.6.
With `CN(C)C(=O)Oc1cccc(F)c1`, the logP turned out to be 1.75.
On to `CCCCCOc1ccccc1NC(=O)OC1CCCCC1CN(C)C` (stereo unspecified), for which the logP came out at 5.46.
Molecule `COC(=O)C(C)c1ccc(-n2sc3ccccc3c2=O)cc1` (stereo unspecified) showed a logP of 3.46.
The result for `C#CCOc1cc(NC=NOCOC)cc(F)c1OCC#C` reads 1.7.
The result for `COC(=O)c1ccc(-n2sc3ccccc3c2=O)cc1` reads 3.49; that for `CNC(=O)COC(=O)Cc1ccc2cc(OC)ccc2c1`, 2.19; that for `CCOC(=O)NC1CCc2cc(OC)c(OC)c(OC)c2-c2ccc(OC)c(=O)cc21` (stereo unspecified), 2.3.
For `COC(=O)NC(=S)Nc1ccccc1N`, the logP stood at 0.7.
The result for `CCCN(CCCC(NC(C)=O)C(=O)NCc1ccccc1)C(=O)N(C)N=O` (stereo unspecified) reads 1.61; that for `OC1(Cn2cncn2)CCCC1Cc1ccc(-c2ccccc2)cc1` (stereo unspecified), 3.92; that for `CCCN1CCN(CCC)C1=S`, 1.86.
The result for `Cc1ccc(CC2CCCC2(O)Cn2cncn2)cc1` (stereo unspecified) reads 2.71.
The result for `CCCN(CCCCC(NC(C)=O)C(=O)NCc1ccccc1)C(=O)N(C)N=O` (stereo unspecified) reads 1.73; that for `CCN(CCO)C(=O)COC(=O)Cc1ccc2cc(OC)ccc2c1`, 1.98; that for `CCC(C)c1ccc(OC(=O)N(C)C)cc1` (stereo unspecified), 3.62.
Regarding `C1SCC2=NOS3=C2C1=NO3`, the lipophilicity (logP) was determined as 1.2.
Take `CNC(=O)N(CCCC(NC(C)=O)C(=O)NCc1ccccc1)Cc1ccccc1` (stereo unspecified): the logP came out at 1.86.
With `CN(C)C(=O)Oc1cccc(C#N)c1`, the log partition coefficient (logP) was 1.23.
Molecule `C=CCNC(=O)NCCCC(NC(C)=O)C(=O)NCc1ccccc1` (stereo unspecified) registered a log partition coefficient (logP) of 0.68.
The result for `C#CCOc1cc(NC=NOCC)cc(Cl)c1OCC#C` reads 2.6; that for `COc1ccc2cc(CC(=O)OCC(=O)NC(C)C)ccc2c1`, 2.89; that for `C#CCOc1cc(NC=NOC)cc(Cl)c1OCC#C`, 2.3.
Take `COC1N(C2CC(N=[N+]=[N-])C(CO)O2)C(=O)NC(=O)C1(C)I` (stereo unspecified): the logP worked out at 1.03.
In turn, `O=C1NC(=O)C(c2ccccc2)(c2ccccc2)N1S(=O)(=O)c1ccc([N+](=O)[O-])cc1` came in with a logP of 4.04.
In the case of `CCCCCCn1c(N)c(N)c(=O)[nH]c1=O`, the logP was found to be 1.01.
`C=CCOc1ccc2c(c1)[n+]([O-])nc(N)[n+]2[O-]` had a log partition coefficient (logP) of 0.76.
The result for `CCNC(=O)COC(=O)Cc1ccc2cc(OC)ccc2c1` reads 2.65; that for `CCOc1ccc(NC(=O)OC(C)CCl)cc1OCC` (stereo unspecified), 2.97.
The result for `C#CC(CC)OC(=O)Nc1ccc(OCC)c(OCC)c1` (stereo unspecified) reads 3.07; that for `CC(C)=CCN1CC[C@@]2(C)c3cc(O)ccc3C[C@@H]1[C@@H]2C`, 4.64.
`Cc1cc2cc3c(C)cc(=O)oc3c(C)c2o1` showed a logP of 3.14.
The result for `CCOc1ccc(NC(=O)OCCF)cc1OCC` reads 2.27.
Regarding `C#CCOc1ccc(NC=NOC)cc1OCC#C`, the logP came to 1.6.
As to `CCCC(=O)Oc1ccccc1C(=O)O`, the log partition coefficient (logP) came to 2.2.
The result for `CC1CCC2C(C)COC3OC4(C)CCC1C32OO4` (stereo unspecified) reads 3.16; that for `C=CCNC(=O)N(CCC)CCCCC(NC(C)=O)C(=O)NCc1ccccc1` (stereo unspecified), 1.75; that for `CCOc1cc[n+]([O-])cc1`, -0.53.

Broadly, the logP is a log measure of how a compound divides between an organic and an aqueous phase. A lower logP goes with a more hydrophilic compound.
